From PubChem BioAssay AID192 (DTP/NCI, 2004) come the findings set out here.

“And” between values parts separate entries of the source, which are not always exact repeats. Equal values may be shown once. Toxic doses and inconclusive results are not listed.

This experiment concerns BDF1 mice, B16 melanoma ip, median survival T/C. As to the kind of experiment: NCI In Vivo Anticancer Drug Screen. Data for tumor model B16 Melanoma (intraperitoneal) in B6D2F1 (BDF1) mice. Particulars: endpoint: median survival time, higher = longer survival. The essentials:
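Read-out: survival or tumor size, given as treated/control ratio. Controls received vehicle only; animals bore transplantable tumors.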

Where [1] appears, read: dose: 12.5 mg/kg/injection, schedule: Q01DX009 (ip), vehicle: saline with Tween-80.
The mark [2] stands for this setting: dose: 25.0 mg/kg/injection, schedule: Q01DX009 (ip), vehicle: saline with Tween-80.
Where [3] appears, read: dose: 6.25 mg/kg/injection, schedule: Q01DX009 (ip), vehicle: saline.
The mark [4] stands for this setting: dose: 12.5 mg/kg/injection, schedule: Q01DX009 (ip), vehicle: saline.
The mark [5] stands for this setting: dose: 75.0 mg/kg/injection, schedule: Q01DX009 (ip), vehicle: Klucel (hydroxypropylcellulose) (HPC).
The mark [6] stands for this setting: dose: 150.0 mg/kg/injection, schedule: Q01DX009 (ip), vehicle: Klucel (hydroxypropylcellulose) (HPC).
Where [7] appears, read: dose: 300.0 mg/kg/injection, schedule: Q01DX009 (ip), vehicle: Klucel (hydroxypropylcellulose) (HPC).
Where [8] appears, read: dose: 100.0 mg/kg/injection, schedule: Q04DX003 (ip), vehicle: Klucel (hydroxypropylcellulose) (HPC).
[9] abbreviates: dose: 200.0 mg/kg/injection, schedule: Q04DX003 (ip), vehicle: Klucel (hydroxypropylcellulose) (HPC).
Setting [10] is: dose: 400.0 mg/kg/injection, schedule: Q04DX003 (ip), vehicle: Klucel (hydroxypropylcellulose) (HPC).
Where [11] appears, read: dose: 100.0 mg/kg/injection, schedule: Q01DX009 (ip), vehicle: saline.
[12] abbreviates: dose: 200.0 mg/kg/injection, schedule: Q01DX009 (ip), vehicle: saline.
Setting [13] is: dose: 50.0 mg/kg/injection, schedule: Q01DX009 (ip), vehicle: saline with Tween-80.
Where [14] appears, read: dose: 100.0 mg/kg/injection, schedule: Q01DX009 (ip), vehicle: saline with Tween-80.
Setting [15] is: dose: 200.0 mg/kg/injection, schedule: Q01DX009 (ip), vehicle: saline with Tween-80.
The mark [16] stands for this setting: dose: 400.0 mg/kg/injection, schedule: Q01DX009 (ip), vehicle: saline with Tween-80.
[17] abbreviates: dose: 50.0 mg/kg/injection, schedule: Q01DX009 (ip), vehicle: saline.

Turning to `O=C1CC2(CCCCC2)CO1`, the T/C was 102 % of control (dose: 0.09 mg/kg/injection, schedule: Q01DX009 (ip), vehicle: saline); 95 % of control (dose: 0.19 mg/kg/injection, schedule: Q01DX009 (ip), vehicle: saline); 91 % of control (dose: 0.39 mg/kg/injection, schedule: Q01DX009 (ip), vehicle: saline); 95 % of control (dose: 0.78 mg/kg/injection, schedule: Q01DX009 (ip), vehicle: saline); 95 % of control (dose: 1.56 mg/kg/injection, schedule: Q01DX009 (ip), vehicle: saline).

With `O=C(CCl)Nc1cc(C(F)(F)F)ccc1Cl`, the T/C was 103 % of control (dose: 6.25 mg/kg/injection, schedule: Q01DX009 (ip), vehicle: saline with Tween-80); 95 % of control under setting [1]; 93 % of control under setting [2].

In the case of `CS(=O)(=O)OCCCCOS(C)(=O)=O`, the T/C (dose: 3.13 mg/kg/injection, schedule: Q01DX009 (ip), vehicle: saline) was 108 % of control; the T/C under setting [3] is 105 % of control; the T/C (dose: 12.5 mg/kg/injection, schedule: Q01DX009 (ip), vehicle: Klucel (hydroxypropylcellulose) (HPC)) is 106 % of control and 107 % of control; the T/C under setting [1] is 97 % of control and 100 % of control and 102 % of control; the T/C under setting [4] was 95 % of control and 105 % of control.

In the case of `COc1ccc2c(c1OC)C(=O)O[C@@H]2[C@H]1c2cc3c(cc2CCN1C)OCO3`, the T/C was 112 % of control (dose: 10.0 mg/kg/injection, schedule: Q01DX009 (ip), vehicle: saline); 108 % of control (dose: 20.0 mg/kg/injection, schedule: Q01DX009 (ip), vehicle: saline); 98 % of control (dose: 40.0 mg/kg/injection, schedule: Q01DX009 (ip), vehicle: saline); 109 % of control (dose: 80.0 mg/kg/injection, schedule: Q01DX009 (ip), vehicle: saline).

For `Cc1ccc(NC(=O)c2ccc(Cl)cc2)cc1Cl`, the T/C reads like this: under setting [5], 100 % of control; under setting [6], 115 % of control; under setting [7], 88 % of control.

With `COC(=O)c1ccccc1NC(=O)Nc1ccccc1`, the T/C was 110 % of control (dose: 100.0 mg/kg/injection, schedule: Q01DX009 (ip), vehicle: Klucel (hydroxypropylcellulose) (HPC)); 105 % of control (dose: 200.0 mg/kg/injection, schedule: Q01DX009 (ip), vehicle: Klucel (hydroxypropylcellulose) (HPC)); 99 % of control (dose: 400.0 mg/kg/injection, schedule: Q01DX009 (ip), vehicle: Klucel (hydroxypropylcellulose) (HPC)).

On to `COC(=O)NC1CC=CCC1I` (centres undefined), for which the T/C was 109 % of control (dose: 12.5 mg/kg/injection, schedule: Q01DX009 (ip), vehicle: saline + alcohol); 97 % of control (dose: 25.0 mg/kg/injection, schedule: Q01DX009 (ip), vehicle: saline + alcohol); 88 % of control (dose: 50.0 mg/kg/injection, schedule: Q01DX009 (ip), vehicle: saline + alcohol).

Turning to `C=C(C)C(=O)O[C@H]1CC2=C[C@@H](C[C@@]3(C)O[C@@H]3[C@H]3OC(=O)C(=C)[C@@H]31)OC2=O`, the T/C is 89 % of control (dose: 3.75 mg/kg/injection, schedule: Q01DX009 (ip), vehicle: Klucel (hydroxypropylcellulose) (HPC)); 97 % of control (dose: 7.5 mg/kg/injection, schedule: Q01DX009 (ip), vehicle: Klucel (hydroxypropylcellulose) (HPC)); 92 % of control (dose: 15.0 mg/kg/injection, schedule: Q01DX009 (ip), vehicle: Klucel (hydroxypropylcellulose) (HPC)).

`CCCCNC(=O)Nc1ccccc1CC`: the T/C by setting is: under setting [8], 110 % of control; under setting [9], 103 % of control; under setting [10], 96 % of control.

As for `O=C(O)[C@@H]1[C@H](C(=O)O)[C@H](C(=O)O)C[C@@H]1C(=O)O`, the T/C by setting is: under setting [11], 102 % of control; under setting [12], 94 % of control; (dose: 400.0 mg/kg/injection, schedule: Q01DX009 (ip), vehicle: saline) 96 % of control.

Regarding `NS(=O)(=O)OCCCCCCCOS(N)(=O)=O`, the T/C under setting [2] is 150 % of control and the T/C under setting [13] was 181 % of control.

As for `Cc1c(N=O)c(=O)n(-c2ccccc2)n1C`, the T/C under setting [8] was 100 % of control, the T/C under setting [9] is 100 % of control and the T/C under setting [10] is 106 % of control.

Regarding `CCCCCCC(=O)CCCC`, the T/C runs as follows: (dose: 100.0 mg/kg/injection, schedule: Q01DX009 (ip), vehicle: other) 98 % of control; (dose: 200.0 mg/kg/injection, schedule: Q01DX009 (ip), vehicle: other) 100 % of control.

On to `CNCCOc1ccc(Cl)cc1`, for which the T/C under setting [2] was 103 % of control, the T/C under setting [13] was 98 % of control and the T/C under setting [14] was 101 % of control.

`c1ccc(-c2nc3ccc4ccccc4c3nc2-c2ccccc2)cc1`: the T/C is 100 % of control under setting [14], 118 % of control under setting [15] and 95 % of control under setting [16].

`COC1OC2COC(c3ccccc3)OC2C(O)C1N` (centres undefined): the T/C was 95 % of control under setting [2]; 91 % of control (dose: 33.0 mg/kg/injection, schedule: Q04DX003 (ip), vehicle: saline with Tween-80); 95 % of control under setting [13]; 93 % of control (dose: 75.0 mg/kg/injection, schedule: Q04DX003 (ip), vehicle: saline with Tween-80); 90 % of control under setting [14].

In the case of `CCOC(=O)CCc1ccc(O)c(O)c1`, the T/C is 102 % of control (dose: 37.5 mg/kg/injection, schedule: Q04DX003 (ip), vehicle: saline); 113 % of control under setting [17]; 102 % of control (dose: 75.0 mg/kg/injection, schedule: Q04DX003 (ip), vehicle: saline); 110 % of control under setting [11]; 97 % of control (dose: 150.0 mg/kg/injection, schedule: Q04DX003 (ip), vehicle: saline); 97 % of control under setting [12].

Consider `CCCCCC(CN(C)C)C(=O)/C=C\c1ccc(Cl)cc1Cl` (centres undefined), for which the T/C is 105 % of control under setting [3] and 97 % of control under setting [4].

`C=C(Cl)c1c(C)cc(C)cc1C`: the T/C (dose: 50.0 mg/kg/injection, schedule: Q01DX009 (ip), vehicle: Klucel (hydroxypropylcellulose) (HPC)) is 87 % of control.

For `CN(C)CCCN1c2ccccc2Sc2cnccc21`, the T/C is 115 % of control (dose: 25.0 mg/kg/injection, schedule: Q01DX009 (ip), vehicle: saline); 93 % of control under setting [17]; 115 % of control under setting [11].

Take `CCO/C=C1\SC(=S)N(c2ccc(C(=O)O)cc2)C1=O`: the T/C runs as follows: under setting [1], 107 % of control; under setting [2], 115 % of control; under setting [13], 110 % of control.

Turning to `[O-]c1c[n+](C23CCC(c4ccccc42)c2ccccc23)no1`, the T/C is 102 % of control under setting [5], 100 % of control under setting [6] and 108 % of control under setting [7].

In the case of `COC(=O)C(=O)[C@@H](O)[C@H](O)[C@@H](O)CO`, the T/C is, setting by setting: under setting [8], 94 % of control; under setting [9], 94 % of control; under setting [10], 100 % of control.

Turning to `Cc1cc(C)c(NC(=O)NC(C)C)c(C)c1`, the T/C reads like this: under setting [8], 100 % of control; under setting [9], 90 % of control; under setting [10], 87 % of control.

Turning to `CCCCC(SC(CC)(C(C)=O)c1ccccc1)C(N)=O` (centres undefined), the T/C by setting is: under setting [13], 89 % of control; under setting [14], 108 % of control; under setting [15], 87 % of control; under setting [16], 92 % of control.

For `CN1CCC2(CC1)SSC1(CCN(C)CC1)S2`, the T/C under setting [11] is 122 % of control; the T/C (dose: 100.0 mg/kg/injection, schedule: Q04DX003 (ip), vehicle: saline) was 91 % of control; the T/C under setting [12] was 116 % of control; the T/C (dose: 200.0 mg/kg/injection, schedule: Q04DX003 (ip), vehicle: saline) is 91 % of control.

On to `CN(C)N=Nc1ccnc2c(Cl)cccc12`, for which the T/C reads like this: (dose: 10.8 mg/kg/injection, schedule: Q01DX009 (ip), vehicle: DMSO) 101 % of control; (dose: 18.0 mg/kg/injection, schedule: Q01DX009 (ip), vehicle: DMSO) 103 % of control; (dose: 30.0 mg/kg/injection, schedule: Q01DX009 (ip), vehicle: DMSO) 101 % of control; (dose: 50.0 mg/kg/injection, schedule: Q01DX009 (ip), vehicle: DMSO) 99 % of control.
